Laboratory results from patent publication US8071294B2, “Cancer therapy sensitizer” (Dana-Farber Cancer Institute, priority 2003, dated 2011).

Experiments:
[1] = system: MIP/SP cells; assay: Colony forming (clonogenic) assay, SPARC-overexpressing cells versus control; assay type: cell-based; conditions: increasing concentrations of chemotherapy (FIG. 21B)
Protocol: Transfection and Selection of Clone—The SPARC cDNA was cloned into pcDNA3.1 expression vector. Transfections were performed with 2.0 μg of the gene/expression vector construct using the polyethylenimine method of Boussiff et al. (1995) with minor modifications (Tai et al., 2002). After transfection, cells were washed with phosphate-buffered saline (PBS, pH 7.4) and maintained in culture medium for 24 hours, followed by a change to an appropriate selection medium containing 1% Zeocin. Cells were selected based on Zeocin resistance and individual colonies and clones from these colonies were then propagated for further verification. Stably transduced clones (MIP/SP) were screened for SPARC mRNA expression by reverse-transcription polymerase chain reaction (RT-PCR) analysis. MIP/SP clones with the highest expression of SPARC mRNA (by RT-PCR) and protein (by Western blot) were selected for subsequent in-vitro and in-vivo studies. Control cell lines used for this study included MIP101 cells stably transduced with pcDNA3.1 empty vector only (MLP/Zeo) and selected based on Zeocin resistance. Colony forming Assay—For clonogenic cell survival studies, MIP101 parental cells and MIP/SP cells were plated at 1,000 cells/plate in 48-well plates and incubated with increasing concentrations of 5-FU (0, 10 μM, 100 μM, 1000 μM), CPT-11 (0, 1 μM, 10 μM, 100 μM), or etoposide (0, 10 μM, 100 μM, 1000 μM) for 4 days. Cells were then washed with PBS and incubated in fresh medium containing the appropriate concentrations of chemotherapy for an additional 7 days. Each well was stained with crystal violet and the colonies with more than 50 cells were counted. The number of colonies formed in the treated group was calculated based on the colonies formed from the control, untreated cells.

[2] = system: MIP/SP cells; assay: Quantitation of apoptosis by Annexin V labeling and flow cytometry, SPARC-overexpressing cells versus control; assay type: cell-based; conditions: 12-hr exposure, p<0.05
Protocol: (§1) Quantitation of Apoptosis—For the TUNEL assay, cells were plated onto glass coverslips in 6-well plates at 250,000 cells/plate overnight prior to any induction study 24 hours later. For the assessment of apoptosis following exogenous SPARC (Haematologic Technologies Inc), cells were incubated with SPARC 5 μg/ml for 24 hrs followed by a 12-hr exposure to 5-FU 1000 μM. Cells were then processed for labeling by Apoptosis Detection Kit (Promega) according to the manufacturer's instructions. For quantitation of apoptosis, cells were plated at 250,000 cells/plate in 6-well plates overnight, followed by 12-hr incubation with the following chemotherapy agents: 5-FU 1000 μM, CPT-11 200 μM, cisplatin 100p4, and etoposide 10 μM. Cells were collected by using a nonenzymatic cell dissociation medium (Sigma), washed with phosphate-buffered saline and subsequently stained for Annexin V and propidium iodide using an Apoptosis detection kit (R & D Research) according to the manufacturer's protocol. The proportion of cells labeled with Annexin V and propidium iodide was analyzed by XL Flow Cytometry Analyzer. Data was collected from 100,000 events.
Transfection and Selection of Clone—The SPARC cDNA was cloned into pcDNA3.1 expression vector. Transfections were performed with 2.0 μg of the gene/expression vector construct using the polyethylenimine method of Boussiff et al. (1995) with minor modifications (Tai et al., 2002). After transfection, cells were washed with phosphate-buffered saline (PBS, pH 7.4) and maintained in culture medium for 24 hours, followed by a change to an appropriate selection medium containing 1% Zeocin. Cells were selected based on Zeocin resistance and individual colonies and clones from these colonies were then propagated for further verification. Stably transduced clones (MIP/SP) were screened for SPARC mRNA expression by reverse-transcription polymerase chain reaction (RT-PCR) analysis. MIP/SP clones with the highest expression of SPARC mRNA (by RT-PCR) and protein (by Western blot) were selected for subsequent in-vitro and in-vivo studies. Control cell lines used for this study included MIP101 cells stably transduced with pcDNA3.1 empty vector only (MLP/Zeo) and selected based on Zeocin resistance.

[3] = system: MIP/SP tumor xenografts; assay: Tumor xenografts of SPARC-overexpressing cells treated with chemotherapy; assay type: in vivo, NIH nude mice; conditions: for rate of tumor regression, MIP/SP versus parental MIP101 xenografts: FIG. 14
Protocol: (§2) Animal Studies—Tumor xenograft animal models were used to assess the effect of SPARC on tumor progression in-vivo. NIH nude mice (6 weeks old, Taconic Laboratories) were engrafted following subcutaneous injection of 2×10^6 cells into the left flank. Treatment regimens were initiated once the average tumor size was 50-75 mm^3 in size. Tumor measurements were performed using a hand-held caliper (Fisher) twice weekly and weight measurements were made concurrently until the completion of the study. Chemotherapy was provided using a 3-week cycle regimen for a total of 6 cycles: 5-FU 25 mg/kg or CPT-11 25 mg/kg intraperitoneal injections three times on week 1 of each cycle, followed by 2 weeks of treatment-free periods. Dosing schedule for SPARC(s) was 100 μL of SPARC(s) three times per week until the completion of the chemotherapy cycle.

[4] = system: MIP101 cells resistant to 5-FU (MIP-5FUR, MIP/5FU); assay: TUNEL assay of apoptosis in 5-FU resistant MIP101 cells; assay type: cell-based
Protocol: (§3) Cell Culture—The colorectal cell line MIP-101 was maintained in Dulbecco's modified Eagle's medium (DMEM) (Invitrogen) supplemented with 10% fetal bovine serum (FBS) (Invitrogen), 1% penicillin/streptomycin (Invitrogen) at 37° C. and 5% CO2. Resistant MIP101 cells were developed following long-term incubation with incremental concentrations of 5-fluorouracil (5-FU), irinotecan (CPT-11), cisplatin (CIS), and etoposide (ETO). Stable MIP101 cells transduced with SPARC (MIP/SP) were maintained in DMEM supplemented with 10% FBS, 1% penicillin/streptomycin, and 0.1% Zeocin at 37° C. and 5% CO2.
as §1, with “For the assessment of apoptosis following exogenous SPARC (Haematologic Technologies Inc), cells were incubated with SPARC 5 μg/ml for 24 hrs followed by a 12-hr exposure to 5-FU 1000 μM.” left out

[5] = system: parental MIP101 cells; assay: TUNEL assay of apoptosis in parental MIP101 cells; assay type: cell-based
Protocol: as §3
as §1, with “For the assessment of apoptosis following exogenous SPARC (Haematologic Technologies Inc), cells were incubated with SPARC 5 μg/ml for 24 hrs followed by a 12-hr exposure to 5-FU 1000 μM.” left out

[6] = system: MIP101 tumor xenografts; assay: MIP101 tumor xenograft animal model; assay type: in vivo, NIH nude mice; conditions: 5-FU alone, n=6
Protocol: (§4) Concentrated SPARC-containing supernatant [SPARC(s)]—MIP/SP cells were plated at 1×10^6 cells in […] in DMEM (10% FBS, 1% penicillin/streptomycin, 0.1% Zeocin) for 24 hrs. Cells were subsequently washed with PBS twice and incubated in serum-free VP-SFM medium supplemented with glutamine 4 mM (Invitrogen) for 72 hrs. This medium was concentrated from 500 ml to 2 ml using Centricon Filter units (Millipore) at 4° C. All media collected and processed by this method were used for subsequent animal studies.
as §2

[7] = system: MIP/5FU tumor xenografts; assay: MIP/5FU tumor xenograft animal model; assay type: in vivo, NIH nude mice; conditions: 5-FU alone (FIG. 18), n=6
Protocol: as §4, §2

Q: With `CCc1c2c(nc3ccc(OC(=O)N4CCC(N5CCCCC5)CC4)cc13)-c1cc3c(c(=O)n1C2)COC(=O)[C@]3(O)CC` [CPT-11, irinotecan] as the molecule, how does the “cell colonies, MIP/SP versus MIP/Zeo” value [1] read?
A: Its value is “fewer cell colonies of MIP/SP cells”.

Q: What about the “cells undergoing apoptosis, MIP/SP versus MIP/Zeo” value [2] of the same molecule?
A: The value was “Greater number”.

Q: And the “rate of tumor regression, MIP/SP versus parental MIP101 xenografts” value [3]?
A: Its value is “more rapid rate of tumor regression”.

Q: What about the “tumor size versus parental MIP101 xenograft” value ([3]; representative animals, 2 cycles of CPT-11) of the same molecule?
A: The value was “significantly smaller tumors”.

Q: Which “cell colonies, MIP/SP versus MIP/Zeo” value [1] does the source give for `COc1cc([C@@H]2c3cc4c(cc3[C@@H](O[C@@H]3O[C@@H]5CO[C@@H](C)O[C@H]5[C@H](O)[C@H]3O)[C@H]3COC(=O)[C@H]23)OCO4)cc(OC)c1O` [etoposide] here?
A: Its value is “fewer cell colonies of MIP/SP cells”.

Q: And the “cells undergoing apoptosis, MIP/SP versus MIP/Zeo” value [2]?
A: Its value is “Greater number”.

Q: With `N.N.[Cl][Pt][Cl]` [cisplatin] as the molecule, how does the “cells undergoing apoptosis, MIP/SP versus MIP/Zeo” value [2] read?
A: The value was “Greater number”.

Q: What does the source list for `O=c1[nH]cc(F)c(=O)[nH]1` [5-FU, 5-fluorouracil]?
A: apoptosis (TUNEL) ([4]; MIP-5FUR cells, 5-FU 500 uM): could not be triggered to undergo apoptosis; apoptosis (TUNEL stain) ([4]; resistant phenotype (MIP/5FU), 5-FU 1000 uM (FIG. 21A)): lack of apoptosis; apoptosis (TUNEL) ([5]; parental sensitive MIP101 cells, 5-FU at a similar concentration (500 uM)): a significant number of cells from the parental, sensitive cell line underwent apoptosis; apoptosis (TUNEL stain) ([5]; sensitive MIP101 cells, 5-FU 1000 uM (FIG. 21A)): positively stained cells; cell colonies, MIP/SP versus MIP/Zeo [1]: fewer cell colonies of MIP/SP cells; cells undergoing apoptosis, MIP/SP versus MIP/Zeo [2]: Greater number; complete tumor regression ([6]; by 42 days post-treatment (FIG. 17)): not observed; complete tumor regression ([6]; by 84 days post-treatment (FIG. 16)): not observed; tumor growth [7]: rapid tumor growth continued; rate of tumor regression, MIP/SP versus parental MIP101 xenografts [3]: more rapid rate of tumor regression; remission of MIP-SPARC xenograft ([3]; representative animals, 2 cycles of 5-FU, by 23 days post-transplant): complete remission

B1: SPARC: Secreted protein acidic and rich in cystein; exogenous SPARC polypeptide (Haematologic Technologies Inc) (protein, UniProt P09486 18-303, looked up)
SPARC: APQQEALPDETEVVEETVAEVTEVSVGANPVQVEVGEFDDGAEETEEEVVAENPCQNHHCKHGKVCELDENNTPMCVCQDPTSCPAPIGEFEKVCSNDNKTFDSSCHFFATKCTLEGTKKGHKLHLDYIGPCKYIPPCLDSELTEFPLRMRDWLKNVLVTLYERDEDNNLLTEKQKLRVKKIHENEKRLEAGDHPVELLARDFEKNYNMYIFPVHWQFGQLDQHPIDGYLSHTELAPLRAPLIPMEHCTTRFFETCDLDNDKYIALDEWAGCFGIKQKDIDKDLVI
Q: How did the “sensitivity to 5-FU (TUNEL-positive cells)” value ([4]; MIP/5FU cells, 24 hr SPARC 5 ug/ml, then 5-FU 1000 uM (FIG. 21A)) turn out when B1 was run?
A: Its value is “once again became sensitive to 5-FU”.

Q: And the “apoptosis (TUNEL), SPARC alone” value ([4]; resistant cells, exogenous SPARC alone without chemotherapy)?
A: Its value is “did not induce apoptosis”.

Q: And the “reversal of resistant phenotype (apoptotic cells by TUNEL)” value ([4]; resistant clones, SPARC 24-hr incubation followed by 12-hr exposure to a chemotherapeutic agent)?
A: The value was “sufficient in reversing the resistant phenotype”.

Q: What about the “apoptosis (TUNEL), SPARC alone” value ([5]; parental MIP 101 cells, exogenous SPARC alone without chemotherapy) of the same molecule?
A: Its value is “did not induce apoptosis”.
